Test [1] deals with human prostate cancer LNCaP cells. Kind of test: Cytotoxic action on LNCaP cells (WST-8, 96 hr). Particulars: 96 hr culture. The test is classed as cell-based. An outline of the steps: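 IC50 values reflect 50% cell survival relative to untreated cells, interpolated linearly between the two concentrations that bracket it. Survival was read by WST-8 after 96 hr of compound treatment of cells grown in 10% FBS/RPMI1640 at 37° C.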

The next test addresses BRD4 protein (Homo sapiens (Human), UniProt O60885). As to the kind of experiment: BRD4 protein degradation inducing action in LNCaP cells (immunofluorescence, 6 hr). The test is classed as cell-based. The note with it: anti-BRD4 fluorescence intensity. The essentials:
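LNCaP cells in 10% FBS/RPMI1640 exposed to compound for 6 hr, fixed, permeabilized and immunostained for BRD4 with Alexa Fluor 546 secondary; fluorescence (ex 560, em 572 nm) read by imaging. DC50 = concentration giving 50% of untreated signal, interpolated linearly between the two bracketing points.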

With `COC(=O)C[C@@H]1N=C(c2ccc(-c3cc(C)c(C(=O)NCc4ccc(S(=O)(=O)Nc5ccc(C)c6c(C#N)c[nH]c56)cc4)cc3F)cc2)c2c(sc(C)c2C)-n2c(C)nnc21` [Example 83, methyl [(6S)-4-{4′-[({4-[(3-cyano-4-methyl-1H-indol-7-yl)sulfamoyl]phenyl}methyl)carbamoyl]-2′-fluoro-5′-methyl[1,1′-biphenyl]-4-yl}-2,3,9-trimethyl-6H-thieno[3,2-f][1,2,4]triazolo[4,3-a][1,4]diazepin-6-yl]acetate], in test [1], the IC50 is 330 pM. The same molecule gave a DC50 on BRD4 protein of 250 pM.
Taken in the same sequence, the figures for `COC(=O)C[C@@H]1N=C(c2ccc(-c3cnc(C(=O)NCc4ccc(S(=O)(=O)Nc5ccc(C)c6c(C#N)c[nH]c56)cc4)nc3)cc2)c2c(sc(C)c2C)-n2c(C)nnc21` [Example Compound 146, methyl [(6S)-4-(4-{2-[({4-[(3-cyano-4-methyl-1H-indol-7-yl)sulfamoyl]phenyl}methyl)carbamoyl]pyrimidin-5-yl}phenyl)-2,3,9-trimethyl-6H-thieno[3,2-f][1,2,4]triazolo[4,3-a][1,4]diazepin-6-yl]acetate] were 1300 pM and 260 pM.
For `Cc1sc2c(c1C)C(c1ccc(-c3cc(F)c(C(=O)NCc4ccc(S(=O)(=O)Nc5ccc(C)c6c(C#N)c[nH]c56)cc4)c(Cl)c3)cc1)=N[C@@H](C)c1nnc(C)n1-2` [Example 72, 3-chloro-N-({4-[(3-cyano-4-methyl-1H-indol-7-yl)sulfamoyl]phenyl}methyl)-5-fluoro-4′-[(6S)-2,3,6,9-tetramethyl-6H-thieno[3,2-f][1,2,4]triazolo[4,3-a][1,4]diazepin-4-yl][1,1′-biphenyl]-4-carboxamide], in that order: 5500 pM and 65000 pM.
For `CCc1ccc(NS(=O)(=O)c2ccc(CNC(=O)c3ccc(-c4ccc(C5=N[C@@H](CC(=O)OC)c6nnc(C)n6-c6sc(C)c(C)c65)cc4)c(C)c3)cc2)c2[nH]cc(C#N)c12` [Example Compound 117, methyl [(6S)-4-{4′-[({4-[(3-cyano-4-ethyl-1H-indol-7-yl)sulfamoyl]phenyl}methyl)carbamoyl]-2′-methyl[1,1′-biphenyl]-4-yl}-2,3,9-trimethyl-6H-thieno[3,2-f][1,2,4]triazolo[4,3-a][1,4]diazepin-6-yl]acetate], in that order: 410 pM and 160 pM.
Turning to `Cc1sc2c(c1C)C(c1ccc(-c3ccc(C(=O)NCc4ccc(S(=O)(=O)Nc5ccc(C)c6c(C#N)c[nH]c56)cc4)cc3)cc1)=N[C@@H](CC(=O)N(C)C)c1nnc(C)n1-2` [Example 38, N-({4-[(3-cyano-4-methyl-1H-indol-7-yl)sulfamoyl]phenyl}methyl)-4′-{(6S)-6-[2-(dimethylamino)-2-oxoethyl]-2,3,9-trimethyl-6H-thieno[3,2-f][1,2,4]triazolo[4,3-a][1,4]diazepin-4-yl}[1,1′-biphenyl]-4-carboxamide], the IC50 in test [1] is 5800 pM. On BRD4 protein, this molecule showed a DC50 of 5600 pM.
In the case of `COC(=O)C[C@@H]1N=C(c2ccc(-c3ccc(C(=O)N[C@H](C)c4ccc(S(=O)(=O)Nc5ccc(C)c6c(C#N)c[nH]c56)cc4)nc3)cc2)c2c(sc(C)c2C)-n2c(C)nnc21` [Example 92, methyl {(6S)-4-[4-(6-{[(1R)-1-{4-[(3-cyano-4-methyl-1H-indol-7-yl)sulfamoyl]phenyl}ethyl]carbamoyl}pyridin-3-yl)phenyl]-2,3,9-trimethyl-6H-thieno[3,2-f][1,2,4]triazolo[4,3-a][1,4]diazepin-6-yl}acetate], the IC50 in test [1] was 87 pM. The same molecule had a DC50 at BRD4 protein of 41 pM.
In turn, `COC(=O)C[C@@H]1N=C(c2ccc(-c3ccc(C(=O)N[C@H](C)c4ccc(S(=O)(=O)Nc5ccc(C)c6c(C#N)c[nH]c56)cc4)cc3Cl)cc2)c2c(sc(C)c2C)-n2c(C)nnc21` [Example 84, methyl [(6S)-4-(2′-chloro-4′-{[(1R)-1-{4-[(3-cyano-4-methyl-1H-indol-7-yl)sulfamoyl]phenyl}ethyl]carbamoyl}[1,1′-biphenyl]-4-yl)-2,3,9-trimethyl-6H-thieno[3,2-f][1,2,4]triazolo[4,3-a][1,4]diazepin-6-yl]acetate] yielded an IC50 in test [1] of 580 pM. In addition, the DC50 at BRD4 protein was 230 pM.
For `COC(=O)C[C@@H]1N=C(c2ccc(-c3ccc(C(=O)N[C@H](C)c4ccc(S(=O)(=O)Nc5ccc(C)c6c(C#N)c[nH]c56)cc4)c(C)c3)cc2)c2c(sc(C)c2C)-n2c(C)nnc21` [Example 86, methyl [(6S)-4-(4′-{[(1R)-1-{4-[(3-cyano-4-methyl-1H-indol-7-yl)sulfamoyl]phenyl}ethyl]carbamoyl}-3′-methyl[1,1′-biphenyl]-4-yl)-2,3,9-trimethyl-6H-thieno[3,2-f][1,2,4]triazolo[4,3-a][1,4]diazepin-6-yl]acetate], inhibition in test [1] was half-maximal at 350 pM (IC50). For the same molecule, on BRD4 protein, the 50% degradation concentration (DC50) was 59 pM.
Turning to `Cc1sc2c(c1C)C(c1ccc(-c3ccc(C(=O)NCc4ccc(S(=O)(=O)Nc5ccc(C)c6c(C#N)c[nH]c56)cc4)c(F)c3)cc1)=N[C@@H](CC(=O)OC(C)(C)C)c1nnc(C)n1-2` [Example Compound 139, t-butyl [(6S)-4-{4′-[({4-[(3-cyano-4-methyl-1H-indol-7-yl)sulfamoyl]phenyl}methyl)carbamoyl]-3′-fluoro[1,1′-biphenyl]-4-yl}-2,3,9-trimethyl-6H-thieno[3,2-f][1,2,4]triazolo[4,3-a][1,4]diazepin-6-yl]acetate], half-maximal inhibition in test [1] (IC50) required 450 pM. Also, it took 250 pM to reach half-maximal degradation on BRD4 protein (DC50).
For `COC(=O)C[C@@H]1N=C(c2ccc(-c3ccc(C(=O)NCc4ccc(S(=O)(=O)Nc5ccc(C)c6c(C#N)c[nH]c56)cc4)cc3)cc2)c2cc(OC)ccc2-n2c(C)nnc21` [Example Compound 133, methyl [(4S)-6-{4′-[({4-[(3-cyano-4-methyl-1H-indol-7-yl)sulfamoyl]phenyl}methyl)carbamoyl][1,1′-biphenyl]-4-yl}-8-methoxy-1-methyl-4H-[1,2,4]triazolo[4,3-a][1,4]benzodiazepin-4-yl]acetate], in that order: 490 pM and 340 pM.
For `CCc1ccc(NS(=O)(=O)c2ccc([C@@H](C)NC(=O)c3ccc(-c4ccc(C5=N[C@@H](CC(=O)OC)c6nnc(C)n6-c6sc(C)c(C)c65)cc4)cn3)cc2)c2[nH]cc(C#N)c12` [Example 109, methyl {(6S)-4-[4-(6-{[(1R)-1-{4-[(3-cyano-4-ethyl-1H-indol-7-yl)sulfamoyl]phenyl}ethyl]carbamoyl}pyridin-3-yl)phenyl]-2,3,9-trimethyl-6H-thieno[3,2-f][1,2,4]triazolo[4,3-a][1,4]diazepin-6-yl}acetate], in that order: 360 pM and 82 pM.
Taken in the same sequence, the figures for `COC(=O)C[C@@H]1N=C(c2ccc(-c3ccc(C(=O)NCc4ccc(S(=O)(=O)Nc5ccc(C)c6c(C#N)c[nH]c56)cc4)cc3F)cc2)c2c(sc(C)c2C)-n2c(C)nnc21` [Example 45, methyl [(6S)-4-{4′-[({4-[(3-cyano-4-methyl-1H-indol-7-yl)sulfamoyl]phenyl}methyl)carbamoyl]-2′-fluoro[1,1′-biphenyl]-4-yl}-2,3,9-trimethyl-6H-thieno[3,2-f][1,2,4]triazolo[4,3-a][1,4]diazepin-6-yl]acetate] were 220 pM and 190 pM.
With `Cc1sc2c(c1C)C(c1ccc(-c3ccc(C(=O)N[C@H](C)c4ccc(S(=O)(=O)Nc5ccc(C)c6c(C#N)c[nH]c56)cc4)cc3)cc1)=N[C@@H](CC(=O)OC(C)(C)C)c1nnc(C)n1-2` [Example Compound 134, t-butyl [(6S)-4-(4′-{[(1R)-1-{4-[(3-cyano-4-methyl-1H-indol-7-yl)sulfamoyl]phenyl}ethyl]carbamoyl}[1,1′-biphenyl]-4-yl)-2,3,9-trimethyl-6H-thieno[3,2-f][1,2,4]triazolo[4,3-a][1,4]diazepin-6-yl]acetate], in test [1], inhibition was half-maximal at 550 pM (IC50). Besides, it took 310 pM to reach half-maximal degradation on BRD4 protein (DC50).
For `COC(=O)C[C@@H]1N=C(c2ccc(-c3ccc(C(=O)NCc4ccc(S(=O)(=O)Nc5ccc(C)c6c(C#N)c[nH]c56)cc4)c(F)c3)cc2)c2c(sc(C)c2C)-n2c(C)nnc21` [Example 2, methyl [(6S)-4-{4′-[({4-[(3-cyano-4-methyl-1H-indol-7-yl)sulfamoyl]phenyl}methyl)carbamoyl]-3′-fluoro[1,1′-biphenyl]-4-yl}-2,3,9-trimethyl-6H-thieno[3,2-f][1,2,4]triazolo[4,3-a][1,4]diazepin-6-yl]acetate], in that order: 350 pM and 230 pM.
`COC(=O)C[C@@H]1N=C(c2ccc(-c3ccc(C(=O)N[C@H](C)c4ccc(S(=O)(=O)Nc5ccc(C)c6c(C#N)c[nH]c56)cc4)c(Cl)c3)cc2)c2c(sc(C)c2C)-n2c(C)nnc21` [Example 70, methyl [(6S)-4-(3′-chloro-4′-{[(1R)-1-{4-[(3-cyano-4-methyl-1H-indol-7-yl)sulfamoyl]phenyl}ethyl]carbamoyl}[1,1′-biphenyl]-4-yl)-2,3,9-trimethyl-6H-thieno[3,2-f][1,2,4]triazolo[4,3-a][1,4]diazepin-6-yl]acetate] displayed an IC50 in test [1] of 230 pM. Also, it took 130 pM to reach half-maximal degradation at BRD4 protein (DC50).
Consider `CCc1ccc(NS(=O)(=O)c2ccc(CNC(=O)c3cc(F)c(-c4ccc(C5=N[C@@H](CC(=O)OC)c6nnc(C)n6-c6sc(C)c(C)c65)cc4)cc3F)cc2)c2[nH]cc(C#N)c12` [Example Compound 119, methyl [(6S)-4-{4′-[({4-[(3-cyano-4-ethyl-1H-indol-7-yl)sulfamoyl]phenyl}methyl)carbamoyl]-2′,5′-difluoro[1,1′-biphenyl]-4-yl}-2,3,9-trimethyl-6H-thieno[3,2-f][1,2,4]triazolo[4,3-a][1,4]diazepin-6-yl]acetate], for which 450 pM corresponded to half-maximal inhibition in test [1] (IC50). This molecule gave a DC50 at BRD4 protein of 270 pM.

What is called IC50 is the concentration at which inhibition is half-maximal. A word on the DC50: it is the concentration at which degradation of the target reaches its halfway point. Low values mean a more potent degrader, high ones a less potent degrader.
